The values that follow come from ChEMBL document CHEMBL1131112, “Matrix metalloproteinase inhibitors: a structure-activity study” (J Med Chem, 1998).

One assay concerns the target Neutrophil collagenase (Homo sapiens, UniProt P22894).
Assay [1] deals with Matrix metalloproteinase-9 (Homo sapiens, UniProt P14780).
Description: The compound was tested for its binding affinity towards 92 kDa gelatinase (Matrix metalloprotease-9)
Assay [2] addresses 72 kDa type IV collagenase (Homo sapiens, UniProt P08253).
Description: Binding affinity towards 72 kDa gelatinase (Matrix metalloprotease-2)

Chain of 72 kDa type IV collagenase (P08253 whole entry): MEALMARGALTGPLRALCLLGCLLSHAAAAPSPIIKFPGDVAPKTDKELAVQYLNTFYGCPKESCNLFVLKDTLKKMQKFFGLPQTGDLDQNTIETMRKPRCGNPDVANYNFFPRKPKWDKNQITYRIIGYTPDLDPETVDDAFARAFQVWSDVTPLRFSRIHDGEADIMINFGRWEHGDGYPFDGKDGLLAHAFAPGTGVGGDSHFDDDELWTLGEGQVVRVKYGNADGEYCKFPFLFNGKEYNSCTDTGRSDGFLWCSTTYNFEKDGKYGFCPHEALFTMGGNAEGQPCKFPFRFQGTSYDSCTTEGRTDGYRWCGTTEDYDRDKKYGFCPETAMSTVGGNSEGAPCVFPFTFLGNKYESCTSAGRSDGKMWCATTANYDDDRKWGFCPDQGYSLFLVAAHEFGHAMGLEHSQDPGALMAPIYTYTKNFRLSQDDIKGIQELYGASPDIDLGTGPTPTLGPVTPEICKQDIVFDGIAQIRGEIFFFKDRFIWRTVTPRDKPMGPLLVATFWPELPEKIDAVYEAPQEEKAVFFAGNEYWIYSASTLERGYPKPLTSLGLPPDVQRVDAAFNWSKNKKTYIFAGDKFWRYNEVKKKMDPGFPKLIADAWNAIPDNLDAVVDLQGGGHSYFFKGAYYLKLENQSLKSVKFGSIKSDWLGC
Chain of Neutrophil collagenase (P22894 whole entry): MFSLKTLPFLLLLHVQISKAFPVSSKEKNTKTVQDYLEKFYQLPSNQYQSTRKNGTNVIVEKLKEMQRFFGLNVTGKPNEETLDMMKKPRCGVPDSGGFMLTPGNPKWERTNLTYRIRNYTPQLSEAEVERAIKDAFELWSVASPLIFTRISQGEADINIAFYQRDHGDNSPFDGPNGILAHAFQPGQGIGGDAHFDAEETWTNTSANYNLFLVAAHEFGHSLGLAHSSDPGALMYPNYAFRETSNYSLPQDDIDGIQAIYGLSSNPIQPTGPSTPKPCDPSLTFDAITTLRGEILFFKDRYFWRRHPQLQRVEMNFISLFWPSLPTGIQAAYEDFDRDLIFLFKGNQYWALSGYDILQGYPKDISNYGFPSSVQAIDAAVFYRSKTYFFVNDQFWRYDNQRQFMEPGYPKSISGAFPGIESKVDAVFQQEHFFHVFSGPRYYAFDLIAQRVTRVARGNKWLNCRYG
Chain of Matrix metalloproteinase-9 (P14780 whole entry): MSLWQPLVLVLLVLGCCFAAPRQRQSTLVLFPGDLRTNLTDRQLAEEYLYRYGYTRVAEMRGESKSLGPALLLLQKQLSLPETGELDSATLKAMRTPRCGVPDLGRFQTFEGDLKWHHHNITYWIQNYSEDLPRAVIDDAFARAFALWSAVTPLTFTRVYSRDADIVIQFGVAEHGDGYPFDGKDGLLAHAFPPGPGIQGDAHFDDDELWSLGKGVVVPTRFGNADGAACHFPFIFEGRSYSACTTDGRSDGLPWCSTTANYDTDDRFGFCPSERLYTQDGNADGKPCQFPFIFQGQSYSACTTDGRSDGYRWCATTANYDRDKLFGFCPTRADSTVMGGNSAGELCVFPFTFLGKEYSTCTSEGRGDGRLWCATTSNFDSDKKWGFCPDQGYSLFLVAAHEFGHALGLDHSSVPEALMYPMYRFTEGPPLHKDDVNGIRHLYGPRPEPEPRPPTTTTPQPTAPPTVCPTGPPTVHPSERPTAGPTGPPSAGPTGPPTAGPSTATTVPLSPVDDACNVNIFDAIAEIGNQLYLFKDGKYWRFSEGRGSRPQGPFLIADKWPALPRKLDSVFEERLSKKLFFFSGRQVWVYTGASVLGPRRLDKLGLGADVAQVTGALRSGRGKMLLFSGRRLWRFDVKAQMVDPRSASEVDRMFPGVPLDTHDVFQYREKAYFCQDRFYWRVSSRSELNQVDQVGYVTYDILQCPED
Description for Neutrophil collagenase: The compound was tested for its binding affinity towards neutrophil collagenase (Matrix metalloprotease-8)

For orientation: Ki means the dissociation constant of the complex between target and ligand, obtained from inhibition or displacement. A lower Ki goes with higher affinity. As for `CCCCCCCC[C@H](CC(=O)NO)C(=O)N[C@@H](Cc1c[nH]c2ccccc12)C(=O)NC`, the Ki at Neutrophil collagenase came out at 1.6 nM; in assay [1], 0.63 nM; in assay [2], 0.66 nM.
On to `CNC(=O)[C@H](Cc1c[nH]c2ccccc12)NC(=O)[C@@H](CC(=O)NOCC(=O)OC)CC(C)C`, for which the Ki on Neutrophil collagenase amounted to 460 nM; in assay [1], 580 nM; in assay [2], 71000 nM.
The like results for `CC(C)C[C@H](CC(=O)NO)C(=O)N[C@H](Cc1ccncc1)C(=O)N[C@@H](C)c1ccccc1` were, in that order, 0.7 nM, 2.5 nM and 1.9 nM.
Regarding `CC(C)C[C@H](CC(=O)NO)C(=O)N[C@H](Cc1ccc2ccccc2c1)C(=O)NCCc1ccc(O)cc1`, the Ki was 4.5 nM on Neutrophil collagenase, 1.7 nM in assay [1] and 8.1 nM in assay [2].
The like results for `CNC(=O)[C@H](Cc1c[nH]c2ccccc12)NC(=O)[C@@H](CC(=O)NOCc1ccccc1)CC(C)C` were, in that order, 16 nM, 13 nM and 11 nM.
As to `CC(C)C[C@H](CC(=O)NO)C(=O)N(C)[C@@H](Cc1c[nH]c2ccccc12)C(=O)NCCCN1CCOCC1`, the Ki at Neutrophil collagenase was 77 nM; in assay [1], 69 nM; in assay [2] it was 55 nM.
For `CC(C)C[C@H](CC(=O)NO)C(=O)N[C@H](Cc1ccc2ccccc2c1)C(=O)NCCCN1CCOCC1`, the Ki at Neutrophil collagenase was 4.5 nM; in assay [1] it was 3.5 nM; in assay [2], 3 nM.
Turning to `CCCCCC[C@H](CC(=O)NO)C(=O)N[C@@H](Cc1c[nH]c2ccccc12)C(=O)NC`, the figures for the Ki (at Neutrophil collagenase; in assay [1]; in assay [2]) were 0.24 nM, 0.41 nM and 0.21 nM, respectively.
For `CNC(=O)[C@@H](CC(C)C)NC(=O)C(CC(C)C)C(O)C(=O)NO` (single isomer, unassigned), in that order: 0.53 nM, 2.3 nM and 0.47 nM.
On to `CNC(=O)[C@H](Cc1c[nH]c2ccccc12)NC(=O)C(CC(C)C)C(O)C(=O)NO` (single isomer, unassigned), for which the Ki on Neutrophil collagenase was determined as 0.41 nM; in assay [1] it was 1.7 nM; in assay [2], 0.89 nM.
